Assays:
rice [1] = assay: Control of aquatic plant species (paddy water); type: in vivo, Oryza sativa; conditions: Oryza sativa, 216 h, nine days, read-out: Percent control; for pest or weed control at 1000 g/ha: 1.0 Kg/Ha
Description: (§1) In testing for such utility, the plant species to be tested were transplanted into 16 oz. containers into about 2 inches of soil when they were in the 1-2 inch stage and then flooded to a depth of about 1 inch. An acetone concentrate of the chemical to be tested was then injected into the paddy water, the volume injected being varied as desired to provide the desired concentration. Percent control was evaluated nine days after application.

pigweed = assay: Postemergent control of plant species; type: in vivo, Amaranthus spp.; conditions: Amaranthus retroflexus, post-emergence, 336 h, read-out: percent postemergent control
Summary of the method: (§2)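 Compounds were taken up in acetone at twice the final concentration, then diluted with an equal volume of water containing 0.1% surfactant and sprayed onto greenhouse-grown plants at the 2-4 leaf stage. Plants were kept about two weeks under growth conditions; control is growth reduction relative to untreated plants of the same species.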

rape [2] = assay: Postemergent control of plant species; type: in vivo, Brassica napus; conditions: Brassica napus, post-emergence, 336 h, read-out: percent postemergent control
Summary of the method: as §2

sorghum [3] = assay: Postemergent control of plant species; type: in vivo, Sorghum vulgare; conditions: Sorghum, post-emergence, 336 h, read-out: percent postemergent control
Summary of the method: as §2

barnyardgrass [4] = assay: Postemergent control of plant species; type: in vivo, Echinochloa crusgalli; conditions: Echinochloa crus-galli, post-emergence, 336 h, read-out: percent postemergent control
Summary of the method: as §2

sprangletop = assay: Control of aquatic plant species (paddy water); type: in vivo, Leptochloa filiformis; conditions: Leptochloa filiformis, 216 h, nine days, read-out: Percent control; for pest or weed control at 1000 g/ha: 1.0 Kg/Ha
Description: as §1

sugar beet [5] = assay: Postemergent control of plant species; type: in vivo, Beta saccharifera; conditions: Beta vulgaris, post-emergence, 336 h, read-out: percent postemergent control
Summary of the method: as §2

[6] = system: nitrification of ammonium nitrogen; assay: Suppression of nitrification of ammonium nitrogen in soil; conditions: 27° C.
Summary of the method: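 Value is % NH4-N remaining after a two-week, 27° C incubation of treated soil held at 1/3 bar tension moisture. Nitrate was measured with an ion-selective electrode after extraction with ammonium sulfate solution and 10 min shaking.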

jimsonweed [7] = assay: Postemergent control of plant species; type: in vivo, Datura stramonium; conditions: Datura stramonium, post-emergence, 336 h, read-out: percent postemergent control
Summary of the method: as §2

cocklebur = assay: Postemergent control of plant species; type: in vivo, Xanthium spp.; conditions: Xanthium strumarium, post-emergence, 336 h, read-out: percent postemergent control
Summary of the method: as §2

barnyardgrass [8] = assay: Control of aquatic plant species (paddy water); type: in vivo, Echinochloa crusgalli; conditions: Echinochloa crus-galli, 216 h, nine days, read-out: Percent control; for pest or weed control at 1000 g/ha: 1.0 Kg/Ha
Description: as §1

rice [9] = assay: Postemergent control of plant species; type: in vivo, Oryza sativa; conditions: Oryza sativa, post-emergence, 336 h, read-out: percent postemergent control
Summary of the method: as §2

wild oats [10] = assay: Postemergent control of plant species; type: in vivo, Avena fatua; conditions: Avena fatua, post-emergence, 336 h, read-out: percent postemergent control
Summary of the method: as §2

velvetleaf [11] = assay: Postemergent control of plant species; type: in vivo, Abutilon theophrasti; conditions: Abutilon theophrasti, post-emergence, 336 h, read-out: percent postemergent control
Summary of the method: as §2

yellow nutsedge [12] = assay: Control of aquatic plant species (paddy water); type: in vivo, Cyperus esculentus; conditions: Cyperus, 216 h, nine days, read-out: Percent control; for pest or weed control at 1000 g/ha: 1.0 Kg/Ha
Description: as §1

wheat [13] = assay: Postemergent control of plant species; type: in vivo, Triticum aestivum; conditions: Triticum aestivum, post-emergence, 336 h, read-out: percent postemergent control
Summary of the method: as §2

yellow foxtail [14] = assay: Postemergent control of plant species; type: in vivo, Setaria lutescens; conditions: Setaria, post-emergence, 336 h, read-out: percent postemergent control
Summary of the method: as §2

soybean [15] = assay: Postemergent control of plant species; type: in vivo, Glycine max.; conditions: Glycine max, post-emergence, 336 h, read-out: percent postemergent control
Summary of the method: as §2

yellow nutsedge [16] = assay: Postemergent control of plant species; type: in vivo, Cyperus esculentus; conditions: Cyperus, post-emergence, 336 h, read-out: percent postemergent control
Summary of the method: as §2

crabgrass = assay: Postemergent control of plant species; type: in vivo, Digitaria spp.; conditions: Digitaria sanguinalis, post-emergence, 336 h, read-out: percent postemergent control
Summary of the method: as §2

annual morning glory [17] = assay: Postemergent control of plant species; type: in vivo, Ipomoea spp.; conditions: Ipomoea, post-emergence, 336 h, read-out: percent postemergent control
Summary of the method: as §2

johnson grass [18] = assay: Postemergent control of plant species; type: in vivo, Sorghum halepense; conditions: Sorghum halepense, post-emergence, 336 h, read-out: percent postemergent control
Summary of the method: as §2

corn [19] = assay: Postemergent control of plant species; type: in vivo, Zea mays; conditions: Zea mays, post-emergence, 336 h, read-out: percent postemergent control
Summary of the method: as §2

cotton [20] = assay: Postemergent control of plant species; type: in vivo, Gossypium spp.; conditions: Gossypium hirsutum, post-emergence, 336 h, read-out: percent postemergent control
Summary of the method: as §2

jimsonweed [21] = assay: Preemergent control of plant species; type: in vivo, Datura stramonium; conditions: Datura stramonium, pre-emergence, 336 h; 0.25 lb/acre; read-out: percent preemergent control
Summary of the method: (§3)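 Seeds sown in agricultural soil beds in a greenhouse received aqueous emulsions of test compositions applied uniformly over the bed surface at the listed rates; water-treated beds served as control. After two weeks under greenhouse growth conditions, control was scored as growth reduction versus untreated plants of the same species.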

rice [22] = assay: Preemergent control of plant species; type: in vivo, Oryza sativa; conditions: Oryza sativa, pre-emergence, 336 h; 0.25 lb/acre; read-out: percent preemergent control
Summary of the method: as §3

yellow nutsedge [23] = assay: Preemergent control of plant species; type: in vivo, Cyperus esculentus; conditions: Cyperus, pre-emergence, 336 h; 0.25 lb/acre; read-out: percent preemergent control
Summary of the method: as §3

soybean [24] = assay: Preemergent control of plant species; type: in vivo, Glycine max.; conditions: Glycine max, pre-emergence, 336 h; 0.25 lb/acre; read-out: percent preemergent control
Summary of the method: as §3

velvetleaf [25] = assay: Preemergent control of plant species; type: in vivo, Abutilon theophrasti; conditions: Abutilon theophrasti, pre-emergence, 336 h; 0.25 lb/acre; read-out: percent preemergent control
Summary of the method: as §3

barnyardgrass [26] = assay: Preemergent control of plant species; type: in vivo, Echinochloa crusgalli; conditions: Echinochloa crus-galli, pre-emergence, 336 h; 0.25 lb/acre; read-out: percent preemergent control
Summary of the method: as §3

sorghum [27] = assay: Preemergent control of plant species; type: in vivo, Sorghum vulgare; conditions: Sorghum, pre-emergence, 336 h; 0.25 lb/acre; read-out: percent preemergent control
Summary of the method: as §3

wheat [28] = assay: Preemergent control of plant species; type: in vivo, Triticum aestivum; conditions: Triticum aestivum, pre-emergence, 336 h; 0.25 lb/acre; read-out: percent preemergent control
Summary of the method: as §3

wild oats [29] = assay: Preemergent control of plant species; type: in vivo; conditions: Avena fatua, pre-emergence, 336 h; 0.25 lb/acre; read-out: percent preemergent control
Summary of the method: as §3

rape [30] = assay: Preemergent control of plant species; type: in vivo, Brassica napus; conditions: Brassica napus, pre-emergence, 336 h; 0.25 lb/acre; read-out: percent preemergent control
Summary of the method: as §3

sugar beet [31] = assay: Preemergent control of plant species; type: in vivo, Beta saccharifera; conditions: Beta vulgaris, pre-emergence, 336 h; 0.25 lb/acre; read-out: percent preemergent control
Summary of the method: as §3

cotton [32] = assay: Preemergent control of plant species; type: in vivo, Gossypium spp.; conditions: Gossypium hirsutum, pre-emergence, 336 h; 0.25 lb/acre; read-out: percent preemergent control
Summary of the method: as §3

annual morning glory [33] = assay: Preemergent control of plant species; type: in vivo, Ipomoea spp.; conditions: Ipomoea, pre-emergence, 336 h; 0.25 lb/acre; read-out: percent preemergent control
Summary of the method: as §3

corn [34] = assay: Preemergent control of plant species; type: in vivo, Zea mays; conditions: Zea mays, pre-emergence, 336 h; 0.25 lb/acre; read-out: percent preemergent control
Summary of the method: as §3

johnson grass [35] = assay: Preemergent control of plant species; type: in vivo, Sorghum halepense; conditions: Sorghum halepense, pre-emergence, 336 h; 0.25 lb/acre; read-out: percent preemergent control
Summary of the method: as §3

yellow foxtail [36] = assay: Preemergent control of plant species; type: in vivo, Setaria lutescens; conditions: Setaria, pre-emergence, 336 h; 0.25 lb/acre; read-out: percent preemergent control
Summary of the method: as §3

Row | SMILES | pest or weed control at 1000 g/ha (rice [1]) | pest or weed control at 500 ppm (pigweed) | plant injury at 500 ppm (rape [2]) | plant injury at 500 ppm (sorghum [3]) | pest or weed control at 500 ppm (barnyardgrass [4]) | pest or weed control at 1000 g/ha (sprangletop) | plant injury at 500 ppm (sugar beet [5]) | pest or weed control at 500 ppm (jimsonweed [7]) | pest or weed control at 500 ppm (cocklebur) | pest or weed control at 1000 g/ha (barnyardgrass [8]) | pest or weed control at 500 ppm (wild oats [10]) | pest or weed control at 500 ppm (velvetleaf [11]) | plant injury at 500 ppm (wheat [13]) | pest or weed control at 500 ppm (yellow foxtail [14]) | plant injury at 500 ppm (soybean [15]) | pest or weed control at 500 ppm (yellow nutsedge [16]) | pest or weed control at 500 ppm (crabgrass) | pest or weed control at 500 ppm (annual morning glory [17]) | pest or weed control at 500 ppm (johnson grass [18]) | plant injury at 500 ppm (corn [19]) | other results
1 | Cc1cc(C)n2nc(S(=O)(=O)Nc3ccccc3Cl)nc2n1 [Compound 7, 5,7-dimethyl-N-(2-chlorophenyl)-1,2,4-triazolo[1,5-a]pyrimidine-2-sulfonamide] | 97% | 60% | 90% | 65% | 35% | 93% | 100% | 20% | 100% | 99% | 0% | 65% | 0% | 25% | 55% | 65% | 0% | 90% | 50% | 0% | % NH4-N Remaining After 2 Weeks Incubation ([6]; 0.06 ppm): 17%; % NH4-N Remaining After 2 Weeks Incubation ([6]; 0.125 ppm): 30%; % NH4-N Remaining After 2 Weeks Incubation ([6]; 0.25 ppm): 62%; % NH4-N Remaining After 2 Weeks Incubation ([6]; 0.5 ppm): 73%; % NH4-N Remaining After 2 Weeks Incubation ([6]; 1 ppm): 80%; plant injury at 500 ppm (rice [9]): 15%; pest or weed control at 1000 g/ha (yellow nutsedge [12]): 90%
2 | COC(=O)c1ccccc1NS(=O)(=O)c1nc2nc(C)cc(C)n2n1 [Compound 10, methyl N-(5,7-dimethyl-1,2,4-triazolo[1,5-a]pyrimidine-2-sulfonyl)anthranilate] | 93% | 20% | 10% | 0% | 0% | 50% | 60% | 0% | 15% | 90% | 0% | 0% | 0% | 0% | 20% | 0% | 0% | 0% | 0% | 0% | plant injury at 500 ppm (cotton [20]): 0%; % NH4-N Remaining After 2 Weeks Incubation ([6]; 0.01 ppm): 0%; % NH4-N Remaining After 2 Weeks Incubation ([6]; 0.1 ppm): 0%; % NH4-N Remaining After 2 Weeks Incubation ([6]; 1 ppm): 27%; % NH4-N Remaining After 2 Weeks Incubation ([6]; 10 ppm): 70%; pest or weed control at 1000 g/ha (yellow nutsedge [12]): 90%
3 | Cc1ccnc2nc(S(=O)(=O)Nc3c(Cl)cccc3Cl)nn12 [Compound 180] | 80% |  | 100% | 50% | 10% | 97% | 100% | 100% | 100% | 97% | 0% | 100% | 0% | 75% | 100% | 90% | 90% | 90% | 20% | 0% | plant injury at 500 ppm (cotton [20]): 100%; pest or weed control at 250 g/ha (rice [1]; 0.25 Kg/Ha): 0%; pest or weed control at 250 g/ha (sprangletop; 0.25 Kg/Ha): 0%; pest or weed control at 250 g/ha (barnyardgrass [8]; 0.25 Kg/Ha): 90%; plant injury at 500 ppm (rice [9]): 10%; pest or weed control at 250 g/ha (yellow nutsedge [12]; 0.25 Kg/Ha): 90%; pest or weed control at 1000 g/ha (yellow nutsedge [12]): 97%
4 | Cc1ccn2nc(S(=O)(=O)Nc3c(C)nn(C)c3C(F)(F)F)nc2n1 [Compound 246] |  | 100% | 70% | 95% | 50% |  | 100% | 80% | 90% |  | 0% | 70% | 0% | 90% | 85% | 80% | 75% | 50% | 75% | 0% | pest or weed control at 280.212 g/ha (jimsonweed [21]): 0%; plant injury at 280.212 g/ha (rice [22]): 20%; plant injury at 500 ppm (cotton [20]): 80%; pest or weed control at 280.212 g/ha (yellow nutsedge [23]): 20%; plant injury at 280.212 g/ha (soybean [24]): 90%; pest or weed control at 280.212 g/ha (velvetleaf [25]): 30%; pest or weed control at 280.212 g/ha (barnyardgrass [26]): 0%; plant injury at 280.212 g/ha (sorghum [27]): 95%; plant injury at 280.212 g/ha (wheat [28]): 10%; pest or weed control at 280.212 g/ha (wild oats [29]): 40%; plant injury at 280.212 g/ha (rape [30]): 80%; plant injury at 500 ppm (rice [9]): 70%; plant injury at 280.212 g/ha (sugar beet [31]): 90%; plant injury at 280.212 g/ha (cotton [32]): 80%; pest or weed control at 280.212 g/ha (annual morning glory [33]): 0%; plant injury at 280.212 g/ha (corn [34]): 20%; pest or weed control at 280.212 g/ha (johnson grass [35]): 20%; pest or weed control at 280.212 g/ha (yellow foxtail [36]): 20%
